# Reference: patent US20180289709A1, “METHODS OF TREATING INFLAMMATION” (priority 2010, published 2018)
# Tested on: primary mouse lung fibroblasts (MLFs)
# Conditions: 1 μM
smiles,measurement,value
CC[C@@H]1C(=O)N(C)c2cnc(Nc3ccc(C(=O)NC4CCN(C)CC4)cc3OC)nc2N1C1CCCC1 [BI 2536],viral replication (luciferase activity in reporter cells),elevated replication
